According to PubChem BioAssay (NCI):
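Assay format: 96-well plates, 48-hour exposure. At the GI50, growth is halved. TGI: concentration producing complete growth inhibition.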

What was measured:
Assay in all cases: NCI-60 cell line screen, 48 h
786-0 renal = tested on: 786-0 renal
A498 renal = tested on: A498 renal
A549 NSCLC = tested on: A549 NSCLC
ACHN renal = tested on: ACHN renal
BT-549 breast = tested on: BT-549 breast
CAKI-1 renal = tested on: CAKI-1 renal
CCRF-CEM leukemia = tested on: CCRF-CEM leukemia
COLO 205 colon = tested on: COLO 205 colon
DU-145 prostate = tested on: DU-145 prostate
EKVX NSCLC = tested on: EKVX NSCLC
HCC-2998 colon = tested on: HCC-2998 colon
HCT-116 colon = tested on: HCT-116 colon
HCT-15 colon = tested on: HCT-15 colon
HL-60(TB) leukemia = tested on: HL-60(TB) leukemia
HOP-62 NSCLC = tested on: HOP-62 NSCLC
HOP-92 NSCLC = tested on: HOP-92 NSCLC
HS 578T breast = tested on: HS 578T breast
HT29 colon = tested on: HT29 colon
IGROV1 ovarian = tested on: IGROV1 ovarian
K-562 leukemia = tested on: K-562 leukemia
KM12 colon = tested on: KM12 colon
LOX IMVI melanoma = tested on: LOX IMVI melanoma
M14 melanoma = tested on: M14 melanoma
MALME-3M melanoma = tested on: MALME-3M melanoma
MDA-MB-231 breast = tested on: MDA-MB-231 breast
MDA-MB-435 = tested on: MDA-MB-435
MDA-N = tested on: MDA-N
MOLT-4 leukemia = tested on: MOLT-4 leukemia
NCI-H226 lung = tested on: NCI-H226 lung
NCI-H23 lung = tested on: NCI-H23 lung
NCI-H460 lung = tested on: NCI-H460 lung
NCI-H522 lung = tested on: NCI-H522 lung
NCI/ADR-RES ovarian = tested on: NCI/ADR-RES ovarian
OVCAR-3 ovarian = tested on: OVCAR-3 ovarian
OVCAR-4 ovarian = tested on: OVCAR-4 ovarian
OVCAR-5 ovarian = tested on: OVCAR-5 ovarian
OVCAR-8 ovarian = tested on: OVCAR-8 ovarian
PC-3 prostate = tested on: PC-3 prostate
RPMI-8226 leukemia = tested on: RPMI-8226 leukemia
SF-268 CNS = tested on: SF-268 CNS
SF-295 CNS = tested on: SF-295 CNS
SF-539 CNS = tested on: SF-539 CNS
SK-MEL-2 melanoma = tested on: SK-MEL-2 melanoma
SK-MEL-28 melanoma = tested on: SK-MEL-28 melanoma
SK-MEL-5 melanoma = tested on: SK-MEL-5 melanoma
SK-OV-3 ovarian = tested on: SK-OV-3 ovarian
SN12C renal = tested on: SN12C renal
SNB-19 CNS = tested on: SNB-19 CNS
SNB-75 CNS = tested on: SNB-75 CNS
SR leukemia = tested on: SR leukemia
SW-620 colon = tested on: SW-620 colon
T-47D breast = tested on: T-47D breast
TK-10 renal = tested on: TK-10 renal
U251 CNS = tested on: U251 CNS
UACC-257 melanoma = tested on: UACC-257 melanoma
UACC-62 melanoma = tested on: UACC-62 melanoma
UO-31 renal = tested on: UO-31 renal
KM20L2 colon = tested on: KM20L2 colon
RXF 393 renal = tested on: RXF 393 renal
MCF7 breast = tested on: MCF7 breast

CC(=O)OC1CC2(O)C3CCC4CC(O)CCC4(C)C3CCC2(C)C1C1=CC(=O)OC1 (configuration not stated)
TGI (786-0 renal): 107 nM
TGI (A498 renal): 392 nM
TGI (A549 NSCLC): 32.3 nM
TGI (ACHN renal): 147 nM
TGI (BT-549 breast): 89.5 nM
TGI (CAKI-1 renal): 130 nM
TGI (CCRF-CEM leukemia): 1690 nM
TGI (COLO 205 colon): 760 nM
TGI (DU-145 prostate): 110 nM
TGI (EKVX NSCLC): 159 nM
TGI (HCC-2998 colon): 390 nM
TGI (HCT-116 colon): 186 nM
TGI (HCT-15 colon): 253 nM
TGI (HL-60(TB) leukemia): 237 nM
TGI (HOP-62 NSCLC): 178 nM
TGI (HOP-92 NSCLC): 19300 nM
TGI (HS 578T breast): > 100000 nM
TGI (HT29 colon): 779 nM
TGI (IGROV1 ovarian): 1770 nM
TGI (K-562 leukemia): 1870 nM
TGI (KM12 colon): 1870 nM
TGI (LOX IMVI melanoma): 209 nM
TGI (M14 melanoma): 367 nM
TGI (MALME-3M melanoma): 111 nM
TGI (MDA-MB-231 breast): 6610 nM
TGI (MDA-MB-435): 357 nM
TGI (MDA-N): 317 nM
TGI (MOLT-4 leukemia): 59.3 nM
TGI (NCI-H226 lung): 784 nM
TGI (NCI-H23 lung): 137 nM
TGI (NCI-H460 lung): 124 nM
TGI (NCI-H522 lung): 185 nM
TGI (NCI/ADR-RES ovarian): 298 nM
TGI (OVCAR-3 ovarian): 172 nM
TGI (OVCAR-4 ovarian): 190 nM
TGI (OVCAR-5 ovarian): 451 nM
TGI (OVCAR-8 ovarian): 272 nM
TGI (PC-3 prostate): 373 nM
TGI (RPMI-8226 leukemia): 445 nM
TGI (SF-268 CNS): 150 nM
TGI (SF-295 CNS): 222 nM
TGI (SF-539 CNS): 113 nM
TGI (SK-MEL-2 melanoma): 505 nM
TGI (SK-MEL-28 melanoma): 654 nM
TGI (SK-MEL-5 melanoma): 116 nM
TGI (SK-OV-3 ovarian): 642 nM
TGI (SN12C renal): 160 nM
TGI (SNB-19 CNS): 1250 nM
TGI (SNB-75 CNS): 618 nM
TGI (SR leukemia): 131 nM
TGI (SW-620 colon): 1410 nM
TGI (T-47D breast): 730 nM
TGI (TK-10 renal): 489 nM
TGI (U251 CNS): 427 nM
TGI (UACC-257 melanoma): 773 nM
TGI (UACC-62 melanoma): 475 nM
TGI (UO-31 renal): 270 nM

O=C(N/N=C/c1cc(Cl)cc(Cl)c1[O-])c1ccccc1O.O=C(N/N=C/c1cc(Cl)cc(Cl)c1[O-])c1ccccc1O.[Ni+2]
GI50 (A549 NSCLC): 402 nM
TGI (A549 NSCLC): 3330 nM
TGI (ACHN renal): 2210 nM
TGI (CAKI-1 renal): 1410 nM
GI50 (COLO 205 colon): 794 nM
TGI (COLO 205 colon): 11600 nM
GI50 (EKVX NSCLC): 1330 nM
TGI (EKVX NSCLC): 5280 nM
TGI (HCC-2998 colon): 1560 nM
GI50 (HCT-116 colon): 439 nM
TGI (HCT-116 colon): 1500 nM
TGI (HCT-15 colon): 1920 nM
TGI (HL-60(TB) leukemia): 472 nM
TGI (HOP-62 NSCLC): 2090 nM
GI50 (HOP-92 NSCLC): 495 nM
TGI (HOP-92 NSCLC): 1790 nM
TGI (HT29 colon): 3400 nM
TGI (IGROV1 ovarian): 1740 nM
TGI (K-562 leukemia): 17400 nM
GI50 (KM12 colon): 494 nM
TGI (KM12 colon): 5660 nM
GI50 (KM20L2 colon): 794 nM
TGI (KM20L2 colon): 2150 nM
TGI (LOX IMVI melanoma): 1810 nM
TGI (M14 melanoma): 1840 nM
GI50 (MALME-3M melanoma): 759 nM
TGI (MALME-3M melanoma): 2360 nM
TGI (MOLT-4 leukemia): 29700 nM
TGI (NCI-H226 lung): 923 nM
GI50 (NCI-H23 lung): 456 nM
TGI (NCI-H23 lung): 1710 nM
TGI (NCI-H460 lung): 1730 nM
TGI (NCI-H522 lung): 823 nM
TGI (OVCAR-3 ovarian): 835 nM
TGI (OVCAR-4 ovarian): 1210 nM
TGI (OVCAR-5 ovarian): 1090 nM
TGI (OVCAR-8 ovarian): 1410 nM
TGI (RXF 393 renal): 2100 nM
TGI (SF-268 CNS): 18500 nM
TGI (SF-295 CNS): 1240 nM
GI50 (SF-539 CNS): 297 nM
TGI (SF-539 CNS): 1160 nM
GI50 (SK-MEL-2 melanoma): 329 nM
TGI (SK-MEL-2 melanoma): 1350 nM
TGI (SK-MEL-28 melanoma): 2090 nM
TGI (SK-MEL-5 melanoma): 1180 nM
TGI (SK-OV-3 ovarian): 3930 nM
TGI (SNB-19 CNS): 8850 nM
TGI (SNB-75 CNS): 7480 nM
TGI (SR leukemia): 1460 nM
TGI (SW-620 colon): 1970 nM
TGI (TK-10 renal): 7810 nM
TGI (U251 CNS): 1980 nM
TGI (UACC-257 melanoma): 2670 nM
TGI (UACC-62 melanoma): 693 nM
TGI (UO-31 renal): 10100 nM

CCOC(=O)/C=C(/C(=O)OCC)n1cc(C)c(=O)n(Cc2cn(COCCOC(C)=O)nn2)c1=O
TGI (786-0 renal): > 54800 nM
TGI (A498 renal): > 100000 nM
TGI (A549 NSCLC): > 100000 nM
TGI (ACHN renal): 21600 nM
TGI (BT-549 breast): 37900 nM
TGI (CAKI-1 renal): 23600 nM
TGI (CCRF-CEM leukemia): 5330 nM
TGI (COLO 205 colon): > 55200 nM
TGI (DU-145 prostate): > 90200 nM
TGI (EKVX NSCLC): 31300 nM
TGI (HCC-2998 colon): 37600 nM
TGI (HCT-116 colon): > 53300 nM
TGI (HCT-15 colon): > 61900 nM
TGI (HL-60(TB) leukemia): 84000 nM
TGI (HOP-62 NSCLC): > 100000 nM
TGI (HOP-92 NSCLC): 28800 nM
TGI (HS 578T breast): > 78300 nM
TGI (HT29 colon): 30700 nM
TGI (IGROV1 ovarian): 32100 nM
TGI (K-562 leukemia): 63200 nM
TGI (KM12 colon): > 62900 nM
TGI (LOX IMVI melanoma): 47800 nM
TGI (M14 melanoma): > 100000 nM
TGI (MALME-3M melanoma): 23700 nM
TGI (MCF7 breast): 43500 nM
TGI (MDA-MB-231 breast): 50900 nM
TGI (MDA-MB-435): 52700 nM
TGI (MDA-N): > 85400 nM
TGI (MOLT-4 leukemia): > 61200 nM
TGI (NCI-H226 lung): > 54000 nM
TGI (NCI-H23 lung): 26300 nM
TGI (NCI-H460 lung): > 63100 nM
TGI (NCI-H522 lung): 6900 nM
TGI (NCI/ADR-RES ovarian): 67900 nM
TGI (OVCAR-3 ovarian): 56100 nM
TGI (OVCAR-4 ovarian): 40000 nM
TGI (OVCAR-5 ovarian): 65000 nM
TGI (OVCAR-8 ovarian): 32700 nM
TGI (PC-3 prostate): > 100000 nM
TGI (RPMI-8226 leukemia): 57700 nM
TGI (RXF 393 renal): > 70000 nM
TGI (SF-268 CNS): 48200 nM
TGI (SF-295 CNS): > 100000 nM
TGI (SF-539 CNS): 38100 nM
TGI (SK-MEL-2 melanoma): > 100000 nM
TGI (SK-MEL-28 melanoma): 57100 nM
TGI (SK-MEL-5 melanoma): > 59800 nM
TGI (SK-OV-3 ovarian): > 100000 nM
TGI (SN12C renal): 59800 nM
TGI (SNB-19 CNS): > 92500 nM
TGI (SNB-75 CNS): > 100000 nM
TGI (SR leukemia): > 94900 nM
TGI (SW-620 colon): > 57600 nM
TGI (T-47D breast): > 64300 nM
TGI (TK-10 renal): 29200 nM
TGI (U251 CNS): > 73800 nM
TGI (UACC-257 melanoma): 49900 nM
TGI (UACC-62 melanoma): 40900 nM
TGI (UO-31 renal): 7990 nM
